Values of other authors, collected in article PMC2643498 (The Journal of Biological Chemistry, 2009).

Columns and labels:
AtNCED3 = settings: 100 μM
AtCCD1 = settings: 100 μM
recombinant NCED = settings: read-out: Ki (NCED)

Ki (recombinant NCED): 18.5 µM
Substance: abamineSG
inhibition of AtNCED3 (AtNCED3): 78%
inhibition of AtCCD1 (AtCCD1): ≤ 20%
